Patent US20230364079A1, “COMPOUND AS BRAIN-PERMEABLE BTK OR HER2 INHIBITOR, PREPARATION METHOD THEREFOR, AND USE THEREOF” (CHENGDU HYPERWAY PHARMACEUTICALS CO., LTD., priority 2020, published 2023)

Biological target: BTK wild-type kinase (Homo sapiens (Human), UniProt Q06187)
Experiment: BTK kinase activity inhibition test in vitro (Caliper EZ Reader)
Assay type: biochemical
Description: In the tests on the activity of inhibiting BTK and HER2 kinase in vitro in the examples of the present disclosure, powder of the compound was dissolved in 100% DMSO to prepare a 10 mM stock solution and stored at-20° C. in the dark. […] In addition, the compounds were subjected to experiments such as liver microsome metabolic stability, rat PK, rat brain penetration rate, and drug efficacy model in the examples of the present disclosure.
Compound powders were dissolved in 100% DMSO to make 10 mM stock solutions, which were stored at -20° C. in the dark.
2: Kinase Reaction Process
(1) Preparation of 1 × Kinase buffer.
(5) After centrifugation at 1000 rpm for 30 seconds, the reaction plate was shaken to mix well and incubated at room temperature for 10 min.
(6) A 5/3-fold final concentration of a mixed solution of ATP and Kinase substrate 2 was prepared with 1 × Kinase buffer.
(7) 15 µL of the mixed solution of ATP and substrate with 5/3-fold final concentration was added to start the reaction.
(8) The 384-well plate was centrifuged at 1000 rpm for 30 seconds, shaken to mix well, and incubated at room temperature for 10 min.
(9) 30 µL of a stop solution was added to stop the kinase reaction, and after centrifugation at 1000 rpm for 30 seconds, the plate was shaken to mix well;
(10) The conversion rate was read with Caliper EZ Reader.
where Conversion%_sample indicates the conversion rate reading of the sample; Conversion%_min is the average reading of the negative control wells, representing the conversion rate reading of the wells without enzyme activity; Conversion%_max is the average reading of the ratio of the positive control wells, representing the conversion rate reading of the wells without compound inhibition.
Dose-Response Curve Fitting
With the log value of the concentration as the X-axis, and the percentage inhibition rate as the Y-axis, the dose-effect curve was fitted using the log(inhibitor) vs. response-Variable slope of the analysis software GraphPad Prism 5, so as to determine the IC50 value of each compound on the enzyme activity.
The calculation formula was: […]

Chain of BTK wild-type kinase (Q06187 whole entry): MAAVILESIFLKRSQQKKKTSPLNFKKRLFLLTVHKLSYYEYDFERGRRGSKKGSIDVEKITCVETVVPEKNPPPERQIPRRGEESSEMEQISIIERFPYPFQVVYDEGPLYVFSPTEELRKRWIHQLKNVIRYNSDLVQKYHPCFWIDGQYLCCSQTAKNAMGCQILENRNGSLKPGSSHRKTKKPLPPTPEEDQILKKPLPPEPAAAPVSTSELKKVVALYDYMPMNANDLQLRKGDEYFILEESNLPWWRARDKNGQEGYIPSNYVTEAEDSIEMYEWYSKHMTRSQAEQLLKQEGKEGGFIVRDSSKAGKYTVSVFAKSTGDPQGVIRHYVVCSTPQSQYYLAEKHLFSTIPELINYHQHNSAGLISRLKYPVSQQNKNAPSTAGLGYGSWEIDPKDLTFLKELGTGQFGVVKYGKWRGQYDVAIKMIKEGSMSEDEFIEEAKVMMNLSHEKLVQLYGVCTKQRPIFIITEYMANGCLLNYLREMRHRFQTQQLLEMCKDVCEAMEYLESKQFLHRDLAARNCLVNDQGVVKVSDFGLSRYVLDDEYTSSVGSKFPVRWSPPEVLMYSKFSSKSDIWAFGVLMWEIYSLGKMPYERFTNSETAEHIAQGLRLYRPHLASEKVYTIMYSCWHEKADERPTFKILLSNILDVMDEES

Row | IC50 [nM] | Structure (SMILES)
1 | > 1000 | Nc1nccn2c(C3CCC(CO)OC3)nc(-c3ccc(Oc4cccnc4F)cc3)c12 (stereo not drawn) [Compound 59]
2 | 100 to 1000 | Nc1nccn2c(C3CCC(CO)OC3)nc(-c3ccc(NC(=O)c4ccc(C5CC5)cc4F)cc3)c12 (stereo not drawn) [Compound 46]
3 | 5 to 20 | Nc1nccn2c(C34COC(CO)(C3)C4)nc(-c3ccc(C(=O)Nc4cc(C(F)(F)F)ccn4)cc3)c12 [Compound 136]
4 | 100 to 1000 | Nc1nccn2c(C3CCC(CO)OC3)nc(-c3ccc(C(=O)Nc4ncccc4F)cc3)c12 (stereo not drawn) [Compound 87]
5 | 20 to 100 | Nc1nccn2c(C3CCC(CO)OC3)nc(-c3ccc(Oc4c(F)c(F)cc(F)c4F)cc3F)c12 (stereo not drawn) [Compound 18]
6 | 20 to 100 | CNC(=O)c1cccc(Oc2ccc(-c3nc(C4CCC(CO)OC4)n4ccnc(N)c34)cc2)c1F (stereo not drawn) [Compound 28]
7 | 20 to 100 | Nc1ncnc2c1c(-c1ccc(Oc3ccccc3)cc1)nn2C1CCC(CO)OC1 (stereo not drawn) [Compound 53]
8 | 5 to 20 | Nc1nccn2c(C34COC(CO)(C3)C4)nc(-c3ccc(Oc4cccc(OC(F)(F)F)c4F)cc3F)c12 [Compound 40]
9 | 100 to 1000 | CC(N)(c1ccccc1)c1ccc(-c2nc(C3CCC(CO)OC3)n3ccnc(N)c23)cc1 (stereo not drawn) [Compound 47]
10 | 100 to 1000 | Nc1nccn2c(C3CCC(CO)OC3)nc(-c3ccc(C(=O)Nc4nccc(C(F)(F)F)c4F)cc3)c12 (stereo not drawn) [Compound 86]
11 | < 5 | COc1cccc(Oc2ccc(-c3nc(C4CCC(CO)OC4)n4ccnc(N)c34)c(F)c2)c1C#N (stereo not drawn) [Compound 98]
12 | 100 to 1000 | CNc1ccccc1C(=O)c1ccc(-c2nc(C3CCC(CO)OC3)n3ccnc(N)c23)cc1 (stereo not drawn) [Compound 67]
13 | > 1000 | NC(=O)c1ccccc1C(=O)c1ccc(-c2nc(C3CCC(CO)OC3)n3ccnc(N)c23)cc1 (stereo not drawn) [Compound 99]
14 | > 1000 | C[C@](N)(c1ccc(F)cc1)c1cnc(-c2nc(C3CCC(CO)OC3)n3ccnc(N)c23)nc1 (stereo partly drawn) [Compound 49]
15 | 5 to 20 | COc1cccc(Oc2ccc(-c3nc(C4CCC(CO)OC4)n4c(C)cnc(N)c34)cc2)c1F (stereo not drawn) [Compound 134]
16 | 5 to 20 | Nc1nccn2c(C34CCC(CO)(CC3)OC4)nc(-c3ccc(C(F)(F)c4ccccc4)cc3F)c12 [Compound 114]
17 | < 5 | COc1cccc(Oc2ccc(-c3nc(C45CCC(CO)(CC4)OC5)n4c(Cl)cnc(N)c34)cc2)c1C#N [Compound 122]
18 | 20 to 100 | Nc1ncc(Cl)n2c(C3CCC(CO)OC3)nc(-c3ccc(C(=O)Nc4ccccn4)cc3)c12 (stereo not drawn) [Compound 3]
19 | 20 to 100 | COc1cc(Oc2ccc(-c3nc(C4CCC(CO)OC4)n4ccnc(N)c34)cc2)ccc1F (stereo not drawn) [Compound 21]
20 | 20 to 100 | Nc1nccn2c(C3CCC(CO)OC3)nc(-c3ccc(C(=O)Nc4ccc(F)cn4)cc3)c12 (stereo not drawn) [Compound 69]
21 | 20 to 100 | COc1cccc(Oc2ccc(-c3nc(C4CCC(C5(O)CC5)OC4)n4ccnc(N)c34)cc2)c1F (stereo not drawn) [Compound 50]
22 | 20 to 100 | Nc1nccn2c(C3CCC(CO)OC3)nc(-c3ccc(Oc4ccc(C5CC5)cc4F)cc3)c12 (stereo not drawn) [Compound 25]

Row | IC50 [nM] | Structure (SMILES)
23 | 5 to 20 | Nc1nccn2c(C3CCC(CO)OC3)nc(-c3ccc(C(F)(F)c4cccc(F)c4F)cc3)c12 (stereo not drawn) [Compound 127]
24 | 5 to 20 | Nc1nccn2c(C34CCC(CO)(CC3)OC4)nc(-c3ccc(Oc4cccc(C(F)(F)F)c4F)cc3)c12 [Compound 93]
25 | 20 to 100 | Nc1nccn2c(C3CCC(CO)OC3)nc(-c3ccc(Oc4ccc5c(c4F)OCC5)cc3)c12 (stereo not drawn) [Compound 84]
26 | 20 to 100 | COc1ccc(C#N)c(Oc2ccc(-c3nc(C4CCC(CO)OC4)n4ccnc(N)c34)cc2)c1 (stereo not drawn) [Compound 96]
27 | 100 to 1000 | Nc1nccn2c(C3CCC(CO)OC3)nc(-c3ccc(Oc4cccc(OCC5CC5)c4F)cc3)c12 (stereo not drawn) [Compound 23]
28 | 20 to 100 | Nc1nccn2c(C34COC(CO)(C3)C4)nc(-c3ccc(C(F)(F)c4ccccc4)cc3)c12 [Compound 138]
29 | < 5 | Nc1nccn2c(C3CCC(CO)OC3)nc(-c3ccc(C(=O)Nc4cc(C(F)(F)F)ccn4)cc3)c12 (single isomer, unassigned) [Compound 109-P2]
30 | 20 to 100 | COc1cccc(Oc2ccc(-c3nc(C4CCC(CO)OC4)n4ccncc34)cc2)c1F (stereo not drawn) [Compound 90]
31 | > 1000 | Cc1cc(NC(=O)c2ccc(C3CC3)cc2F)c(F)cc1-c1nc(C2CCC(CO)OC2)n2ccnc(N)c12 (stereo not drawn) [Compound 31]
32 | 20 to 100 | Nc1nccn2c(C34COC(CO)(C3)C4)nc(-c3ccc(C(=O)Nc4ccccn4)cc3F)c12 [Compound 43]
33 | < 5 | Nc1ncc(Cl)n2c(C34CCC(CO)(CC3)OC4)nc(-c3ccc(C(=O)Nc4cc(C(F)(F)F)ccn4)cc3)c12 [Compound 128]
34 | 100 to 1000 | Nc1nccn2c(C3CCC(CO)OC3)nc(-c3ccc(C(=O)Nc4ccccc4F)cc3)c12 (stereo not drawn) [Compound 133]
35 | > 1000 | Nc1nccn2c(C3CCC(CO)OC3)nc(-c3cnc(Nc4cccc(OC(F)(F)F)c4)nc3)c12 (stereo not drawn) [Compound 56]
36 | 100 to 1000 | Nc1nccn2c(C34CCC(CO)(CC3)OC4)nc(-c3ccc(C(F)(F)c4ccc(F)c(Cl)c4)cc3)c12 [Compound 140]
37 | 20 to 100 | COc1ccccc1C(=O)NCc1ccc(-c2nc(C3CCC(CO)OC3)n3ccnc(N)c23)cc1 (stereo not drawn) [Compound 33]
38 | 100 to 1000 | CNC(=O)c1cc(Oc2ccc(-c3nc(C4CCC(CO)OC4)n4ccnc(N)c34)cc2)ccn1 (stereo not drawn) [Compound 107]
39 | 100 to 1000 | COc1c(F)cccc1Oc1ccc(-c2nc(C3CCC(CO)OC3)n3ccnc(N)c23)cc1 (stereo not drawn) [Compound 76]
40 | 100 to 1000 | Nc1nccn2c(C3COC4C(O)COC34)nc(-c3ccc(C(=O)Nc4ccccn4)cc3)c12 (stereo not drawn) [Compound 83]
41 | 5 to 20 | COc1cccc(C(F)(F)c2ccc(-c3nc(C4CCC(CO)OC4)n4ccnc(N)c34)cc2)c1F (stereo not drawn) [Compound 126]
42 | 5 to 20 | Nc1nccn2c(C3CCC(CO)OC3)nc(-c3ccc(Oc4cccc(OC(F)F)c4F)cc3)c12 (stereo not drawn) [Compound 75]
43 | 5 to 20 | Nc1nccn2c(C34CCC(CO)(CC3)OC4)nc(-c3ccc(Oc4cccc(OC(F)(F)F)c4F)cc3)c12 [Compound 95]
44 | 20 to 100 | Nc1nccn2c(C3CCC(CO)OC3)nc(-c3ccc(C(=O)c4ccccc4Cl)cc3)c12 (stereo not drawn) [Compound 62]

Row | IC50 [nM] | Structure (SMILES)
45 | > 1000 | COc1cccc(NC(=O)c2ccc(-c3nc(C4CCC(CO)OC4)n4ccnc(N)c34)cc2)n1 (stereo not drawn) [Compound 58]
46 | 100 to 1000 | Nc1nccn2c(C3CCC(CO)OC3)nc(-c3ccc(C(O)c4ccccc4Cl)cc3)c12 (stereo not drawn) [Compound 63]
47 | > 1000 | COCCOc1ccc(-c2nc(C3CCC(CO)OC3)n3ccnc(N)c23)cc1 (stereo not drawn) [Compound 74]
48 | 5 to 20 | COc1cccc(Oc2ccc(-c3nc(C45COC(CO)(C4)C5)n4ccnc(N)c34)cc2)c1C#N [Compound 137]
49 | 5 to 20 | COc1cccc(Oc2ccc(-c3nc(C4CCC(CO)OC4)n4ccnc(N)c34)cc2)n1 (stereo not drawn) [Compound 104]
50 | 5 to 20 | Nc1nccn2c(C3CCC(CO)OC3)nc(-c3ccc(Oc4ccccc4)cc3Cl)c12 (stereo not drawn) [Compound 32]
51 | 5 to 20 | COc1c(F)ccc(Oc2ccc(-c3nc(C4CCC(CO)OC4)n4ccnc(N)c34)cc2)c1F (stereo not drawn) [Compound 20]
52 | 5 to 20 | Nc1nccn2c(C34CCC(CO)(CC3)OC4)nc(-c3ccc(Oc4cccc(Cl)c4F)cc3)c12 [Compound 94]
53 | 5 to 20 | Nc1nccn2c(C34CCC(CO)(CC3)OC4)nc(-c3ccc(C(=O)Nc4ccccn4)cc3F)c12 [Compound 35]
54 | 20 to 100 | Nc1nccn2c(C3CCC(CO)OC3)nc(-c3ccc(OCc4ccccc4)cc3)c12 (stereo not drawn) [Compound 55]
55 | < 5 | Cc1cccc(Oc2ccc(-c3nc(C45CCC(CO)(CC4)OC5)n4ccnc(N)c34)cc2)c1F [Compound 92]
56 | 20 to 100 | Nc1ncnc2c1c(-c1ccc(Oc3ccccc3)cc1F)nn2C1CCC(CO)OC1 (stereo not drawn) [Compound 54]
57 | < 5 | COc1cccc(Oc2ccc(-c3nc(C45CCC(CO)(CC4)OC5)n4ccnc(N)c34)cc2)c1F [Compound 37]
58 | 5 to 20 | Nc1nccn2c(C3CCC(CO)OC3)nc(-c3ccc(Oc4cccc(OC5CC5)c4F)cc3)c12 (stereo not drawn) [Compound 15]
59 | 20 to 100 | Nc1ncc(Cl)n2c(C34COC(CO)(C3)C4)nc(-c3ccc(C(=O)Nc4ccccn4)cc3F)c12 [Compound 44]
60 | 20 to 100 | Nc1nccn2c(C3CCC(CO)OC3)nc(-c3ccc(Nc4ccccc4)cc3)c12 (stereo not drawn) [Compound 48]
61 | 5 to 20 | COc1cccc(Oc2ccc(-c3nn(C4CCC(CO)OC4)c4ncnc(N)c34)cc2)c1F (stereo not drawn) [Compound 29]
62 | < 5 | Nc1nccn2c(C3CCC(CO)OC3)nc(-c3ccc(C(=O)Nc4cc(C(F)(F)F)ccn4)cc3F)c12 (stereo not drawn) [Compound 105]
63 | 20 to 100 | Cc1ccc(Oc2ccc(-c3nc(C4CCC(CO)OC4)n4ccnc(N)c34)cc2)c(F)c1 (stereo not drawn) [Compound 77]
64 | 5 to 20 | Nc1ccccc1C(=O)c1ccc(-c2nc(C3CCC(CO)OC3)n3ccnc(N)c23)cc1 (stereo not drawn) [Compound 65]
65 | 5 to 20 | COc1cccc(Oc2ccc(-c3nc(C45COC(CO)(C4)C5)n4ccnc(N)c34)cc2)c1F [Compound 45]
66 | 5 to 20 | Nc1ncc(Cl)n2c(C34COC(CO)(C3)C4)nc(-c3ccc(Oc4cccc(OC(F)(F)F)c4F)cc3F)c12 [Compound 41]
